Source: publication PMC12799407, “Differential RELA and GR recruitment to the BIRC3/BIRC2 locus: Molecular insight as to combinatorial regulation by proinflammatory cytokines and glucocorticoid” (Molecular Pharmacology, 2025)
Values joined by “and” are separate entries in the source; they are usually repeats but may differ in a detail not shown here. Identical values can stand only once. Like-named read-outs stand apart in the source and are kept apart here.

Columns and labels:
[1] = system: R5 reporter; experiment: R5 luciferase reporter stably transfected in A549 cells; type: cell-based, human; settings: for EC50: Homo sapiens
Method: (§2) Data were assumed to be normally distributed and, unless otherwise indicated, are presented as means ± SD with scatterplots showing individual values. With the exception of pEC50 values, numerical values in tables and text are provided to one decimal place, or where appropriate 2 significant figures of accuracy. […] Multiple comparisons were made using one-way ANOVA with Tukey’s or Dunnett’s post hoc tests, as appropriate. Comparisons between 2 groups were performed by 2-tailed, paired Student’s t test. The number of independent experiments (N) is indicated in each graph and, being exploratory, sample sizes were not prespecified. […] GraphPad Prism software (version 11; Dotmatics) and/or the R package “ggplot2” was used for graph plotting and statistical analyses. Heat maps were generated using the R package “pheatmap.” Concentration-response relationships were fitted using the 4-parameter model that assumed symmetric variance or using the Gaddum-Schild model of competitive antagonism, as described previously.[43] Variance in pEC50, EMax, or pA2 are provided by Prism as mean ±SE, whereas all curves are plotted as means ±SD (but without scatterplots).

[2] = system: GR recruitment to FKBP5; experiment: ChIP-qPCR of GR recruitment to FKBP5 in A549 cells; type: cell-based, human; settings: budesonide 300 nM, 1 hour
Method: (§3) After cell treatments, formaldehyde (PI28906, Thermo Fisher Scientific) was added to a final concentration of 1% for 10 minutes. […] Following cytoplasmic and then nuclear lysis, lysates were sonicated with 30 high-power bursts in a 30 seconds on-off cycle at 4 °C using a Bioruptor (Diagenode). Antibodies: GR, GR-356,[36] RELA (NF-κB p65, D14E12, #8242, Cell Signaling Technologies); RNA polymerase 2 (RNAP2) (Rpb1 NTD D8L4Y, #14958, Cell Signaling Technologies) used for ChIP were preincubated with protein G magnetic Dynabeads (10004D, Thermo Fisher Scientific) overnight at 4 °C and beads were washed as previously described. Nuclear lysates were then incubated with the antibody-coated beads overnight prior to extensive washing. Following reversal of crosslinks, DNA was purified with a ChIP DNA Clean & Concentrator kit (D5205, Zymo Research). Fast SYBR Green Master Mix (Thermo Fisher Scientific) was used in standard quantitative polymerase chain reaction (qPCR) reactions to detect DNA regions of interest. […] Relative occupancy at each region was calculated as ΔΔ threshold cycle (CT) after normalization to the geometric mean of the threshold cycle values for 3 negative control regions (Gene symbols: OLIG3, MYOD1, and MYOG).

[3] = system: R8 reporter; experiment: R8 luciferase reporter stably transfected in A549 cells; settings: for EC50 / inhibition at 30 µM: Homo sapiens; for EC50: A549, read-out: pEC50, R8 reporter (converted), Schild experiments (Fig. 7D); for inhibition at 30 µM: A549, read-out: inhibition of IL-1β-plus-dexamethasone-induced R8 reporter activity
Method: as §2

[4] = system: R2 reporter; experiment: R2 luciferase reporter (BIRC3/BIRC2 locus) stably transfected in A549 cells; type: cell-based, human; settings: for EC50: A549, 6 h; for pA2 (Schild analysis): Org34517 1 μM
Method: Data were assumed to be normally distributed and, unless otherwise indicated, are presented as means ± SD with scatterplots showing individual values. […] Multiple comparisons were made using one-way ANOVA with Tukey’s or Dunnett’s post hoc tests, as appropriate. Comparisons between 2 groups were performed by 2-tailed, paired Student’s t test. The number of independent experiments (N) is indicated in each graph and, being exploratory, sample sizes were not prespecified. […] Heat maps were generated using the R package “pheatmap.” Concentration-response relationships were fitted using the 4-parameter model that assumed symmetric variance or using the Gaddum-Schild model of competitive antagonism, as described previously.[43] Variance in pEC50, EMax, or pA2 are provided by Prism as mean ±SE, whereas all curves are plotted as means ±SD (but without scatterplots). Because all analyses were exploratory and were not designed to test prespecified statistical null hypotheses, stated P values should be viewed as being descriptive rather than as hypothesis testing.

[5] = system: R4 reporter; experiment: R4 luciferase reporter stably transfected in A549 cells; type: cell-based, human; settings: for EC50: Homo sapiens, A549, read-out: EC50, inhibition of IL-1β-induced R4 reporter activity
Method: as §2

[6] = system: R8 reporter
Method: as §2

[7] = system: BIRC3 mRNA; experiment: qPCR of BIRC3 mRNA in A549 cells; type: cell-based, human; settings: for EC50: Homo sapiens, A549, 2 h, IL-1β-induced BIRC3 mRNA, 2 h; for repression of IL-1β-induced BIRC3 mRNA: at 30 μM, IL-1β 2 h
Method: (§1) Following treatments, total RNA was extracted and 500 ng used for cDNA synthesis according to standard procedures.[34] After 1:5 dilution, cDNA (2.5 μL) was analyzed by qPCR (StepOnePlus, Applied […] or QuantStudio3, Thermo Fisher Scientific) with Fast SYBR Green Master Mix (4385618, Thermo Fisher Scientific). Amplification conditions and primers specific for BIRC3, BIRC2, and glyceraldehyde-3-phosphate dehydrogenase mRNAs were as described.[9] In each case, relative cDNA concentrations were obtained from standard curves generated by serial dilution of a stimulated cDNA sample that was analyzed in parallel with the experimental samples. Primer specificity was assessed by melt curve analysis where a single peak in the change of fluorescence with temperature was taken to indicate specificity.

[8] = system: BIRC2 mRNA; experiment: qPCR of BIRC2 mRNA in A549 cells; type: cell-based, human; settings: for effect on IL-1β-induced BIRC2 mRNA expression: concentration series, IL-1β 2 h (Fig. 6C)
Method: as §1

[9] = system: NF-κB reporter; parameters: method as in PMID 17322026, PMID 37863662, PMID 38941070; settings: read-out: EC50, inhibition of IL-1β-induced NF-κB reporter activity; cited from earlier work
[10] = system: R3 reporter; experiment: R3 luciferase reporter stably transfected in A549 cells; type: cell-based, human; settings: IL-1β 1 ng/mL, 6 h (Fig. 3B,C)
Method: Data were assumed to be normally distributed and, unless otherwise indicated, are presented as means ± SD with scatterplots showing individual values. […] Multiple comparisons were made using one-way ANOVA with Tukey’s or Dunnett’s post hoc tests, as appropriate. Comparisons between 2 groups were performed by 2-tailed, paired Student’s t test. The number of independent experiments (N) is indicated in each graph and, being exploratory, sample sizes were not prespecified. […] GraphPad Prism software (version 11; Dotmatics) and/or the R package “ggplot2” was used for graph plotting and statistical analyses. Heat maps were generated using the R package “pheatmap.” Concentration-response relationships were fitted using the 4-parameter model that assumed symmetric variance or using the Gaddum-Schild model of competitive antagonism, as described previously.[43] Variance in pEC50, EMax, or pA2 are provided by Prism as mean ±SE, whereas all curves are plotted as means ±SD (but without scatterplots).

[11] = system: R0 reporter; experiment: R0 luciferase reporter stably transfected in A549 cells; type: cell-based, human; settings: IL-1β 1 ng/mL, 6 h (Fig. 3B,C)
Method: as §2

[12] = system: RELA recruitment to CXCL8; experiment: ChIP-qPCR of RELA recruitment to CXCL8 in A549 cells; type: cell-based, human; settings: IL-1β 1 ng/mL, 1 hour
Method: as §3

[13] = system: R7 reporter; experiment: R7 luciferase reporter stably transfected in A549 cells; type: cell-based, human
Method: as §2

[14] = A549, 6 h, R5 reporter, glucocorticoid + IL-1β (1 ng/mL), 6 h
[15] = A549, 6 h, R5 reporter, glucocorticoid, naïve, 6 h
[16] = R5 reporter, glucocorticoid + IL-1β (1 ng/mL), % of 1 μM dexamethasone, 6 h
[17] = R5 reporter, glucocorticoid, naïve, expressed as % of 1 μM dexamethasone, 6 h
[18] = Homo sapiens, R2 reporter, glucocorticoid + IL-1β (1 ng/mL), 6 h
[19] = Homo sapiens, R2 reporter, glucocorticoid, naïve, 6 h
[20] = R5 reporter, IL-1β, naïve, n.r. = no significant response
[21] = R8 reporter, IL-1β, naïve (Table 1), n.r. = no significant response
[22] = R8 reporter, IL-1β, naïve, budesonide series (Supplemental Table 1), n.r. = no significant response

## CCCC1O[C@@H]2C[C@H]3[C@@H]4CCC5=CC(=O)C=C[C@]5(C)[C@H]4[C@@H](O)C[C@]3(C)[C@]2(C(=O)CO)O1 (some centres unmarked) [Budesonide, budesonide]
[1]; [14]
  EC50: 12.3 nM
[1]; [15]
  EC50: 6.61 nM
[1]; [16]
  EMax (% of 1 μM dexamethasone ± SE): 9.3%
[1]; [17]
  EMax (% of 1 μM dexamethasone ± SE): 92.2%
[2]
  recruitment of GR to FKBP5, fold: 240 ± 150 fold
[3]; R8 reporter, glucocorticoid + IL-1β (1 ng/mL), 6 h
  EMax (Fold ± SE): 16.2 Fold
[3]; R8 reporter, glucocorticoid, naïve, 6 h
  EMax (Fold ± SE): 2.2 Fold
[4]; [18]
  EC50: 5.89 nM
[4]; [19]
  EC50: 3.47 nM
[4]; R2 reporter, glucocorticoid + IL-1β (1 ng/mL), 6 h
  EMax (Fold ± SE): 3.3 Fold
[4]; R2 reporter, glucocorticoid concentration-response, naïve, 6 h
  EMax (Fold ± SE): 2.4 Fold

## C[C@@H]1C[C@H]2[C@@H]3CCC4=CC(=O)C=C[C@]4(C)[C@@]3(F)[C@@H](O)C[C@]2(C)[C@@]1(O)C(=O)CO [Dexamethasone, dexamethasone]
[1]; [14]
  EC50: 10 nM
[1]; [15]
  EC50: 11.5 nM
[1]; A549, R5 reporter, dexamethasone, Schild experiments (Fig. 7C), read-out: pEC50 (converted)
  EC50: 11.7 nM
[1]; [16]
  EMax (% of 1 μM dexamethasone ± SE): 16.3% ± 1.8
[1]; [17]
  EMax (% of 1 μM dexamethasone ± SE): 101% ± 2
[3]; dexamethasone alone
  EC50: 10.7 nM
[3]; dexamethasone in the presence of IL-1β
  EC50: 8.32 nM
[4]; [18]
  EC50: 10.2 nM
[4]; [19]
  EC50: 8.51 nM

## COc1c(Cl)cc2c([nH]c3cnccc32)c1NC(=O)c1cccnc1C.Cl.Cl [ML120B, N-(6-Chloro-7-methoxy-9H-pyrido[3,4-b]indol-8-yl)-2-methyl-3-pyridinecarboxamide dihydrochloride]
[5]
  EC50: ≥ 30000 nM
[6]
  EC50: 10000 nM
[3]
  inhibition at 30 µM: > 75%
[7]
  EC50: 2950 nM
  repression of IL-1β-induced BIRC3 mRNA: ~54%
[8]; Homo sapiens, A549, 2 h
  EC50: 10500 nM
[8]
  effect on IL-1β-induced BIRC2 mRNA expression: partial repressive effect
[4]
  reduction in reporter activity in the presence of IL-1β: 27.8%
  reduction in reporter activity induced by dexamethasone: 34.0%
[9]
  EC50: 8200 nM

## CC#C[C@]1(O)CCC2C3CCC4=CC(=O)CCC4=C3[C@@H](c3ccc4c(c3)OCO4)C[C@@]21C (some centres unmarked) [Org34517]
[5]; Org34517 1 μM, P ≤ .05 and .01
  effect on induced R4 reporter activity: reduced
[1]; R5 reporter, Org34517 1 μM, dexamethasone 1 μM
  dexamethasone-induced luciferase activity in the presence of Org34517, fold: 1.7 fold
[1]; R5 reporter, antagonism of dexamethasone, Org34517 1 μM
  pA2 (Schild analysis): 8.33 ±0.14
[3]; R8 reporter, Org34517 1 μM
  IL-1β-plus-dexamethasone-induced reporter activity in the presence of Org34517, fold: 6.3 fold
[3]; R8 reporter, Org34517 1 μM, dexamethasone 1 μM
  dexamethasone-induced reporter activity in the presence of Org34517, fold: 1.4 fold
[3]; R8 reporter, antagonism of dexamethasone + IL-1β, Org34517 1 μM
  pA2 (Schild analysis): 8.14 ± 0.11
[3]; R8 reporter, antagonism of dexamethasone, Org34517 1 μM
  pA2 (Schild analysis): 8.14 ± 0.11
[4]; R2 reporter, antagonism of dexamethasone + IL-1β
  pA2 (Schild analysis): 7.99
[4]; R2 reporter, antagonism of dexamethasone, consistent with antagonism at GR
  pA2 (Schild analysis): 7.71

## O=C(Nc1cc(Cl)cc2c1[nH]c1cnccc12)c1cccnc1 [PS-1145, N-(6-chloro-9h-pyrido[3,4-b]indol-8-yl)-3-pyridinecarboxamide]
[5]; inhibitor 30 μM, dexamethasone 1 μM
  reduction of dexamethasone-induced R4 reporter activity: 24.5%
[3]
  inhibition at 30 µM: > 60%
[7]
  EC50: 2750 nM
  repression of IL-1β-induced BIRC3 mRNA: ~54%
[8]
  effect on IL-1β-induced BIRC2 mRNA expression: no effect on IL-1β-induced expression until a concentration of 100 μM
[4]; R2 reporter, inhibitor 30 μM (Fig. 6A)
  inhibition of IL-1β-plus-dexamethasone-induced reporter activity: unaffected
[4]; R2 reporter, inhibitor 30 μM, dexamethasone 1 μM (Fig. 6A)
  reduction in reporter activity induced by dexamethasone: unaffected
[9]
  EC50: 1000 to 2000 nM

## NC(=O)Nc1sc(-c2ccc(F)cc2)cc1C(N)=O [TPCA-1, 2-[(aminocarbonyl)amino]-5-(4-fluorophenyl)-3-thiophenecarboxamide]
[5]
  EC50: 2600 nM
[3]; inhibitor 30 μM
  inhibition of IL-1β-plus-dexamethasone-induced R8 reporter activity: complete inhibition
[7]
  repression of IL-1β-induced BIRC3 mRNA: near complete inhibition
[8]
  effect on IL-1β-induced BIRC2 mRNA expression: below 10 μM, TPCA-1 was without effect
[4]; Homo sapiens, A549, read-out: inhibition of IL-1β-plus-dexamethasone-induced reporter activity
  inhibition at 30 µM: 56%
[9]
  EC50: 2000 nM

## IL-1β: Recombinant human IL-1β (R&D Systems), proinflammatory cytokine
[10]
  reporter activity, fold of no stimulation ± SD: 1.4 ± 0.3 fold
[5]; R4 reporter, IL-1β + Budesonide (300 nM)
  EMax (Fold ± SE): 4.8 Fold
[5]; R4 reporter, IL-1β + dexamethasone (1 μM), 6 h
  EMax (Fold ± SE): 4.3 ± 0.1 Fold
[5]; R4 reporter, IL-1β, naïve, 6 h (Table 1)
  EMax (Fold ± SE): 3.5 ± 0.1 Fold
[5]; R4 reporter, IL-1β, naïve, budesonide series (Supplemental Table 1)
  EMax (Fold ± SE): 3.6 Fold
[5]; R4 reporter, dexamethasone 1 μM, IL-1β 1 ng/mL or both, 6 h (Fig. 3C)
  reporter activity, fold of no stimulation ± SD: 3.3 ± 1.9 fold
[5]; R4 reporter, naïve cells, dexamethasone 1 μM, IL-1β 1 ng/mL or both, 6 h (Fig. 5C)
  reporter activity, fold of not stimulated: 2.8 ± 0.7 fold
[1]; R5 reporter, IL-1β + dexamethasone (1 μM): inhibition of dexamethasone-induced activity, % of 1 μM dexamethasone
  EMax (% of 1 μM dexamethasone ± SE): 15.1% ± 3.1
[1]; [20]
  EMax: n.r.
  pEC50 (−log[g/ mL] ± SE): n.r.
[11]
  reporter activity, fold of no stimulation ± SD: 1.6 ± 0.5 fold
[12]
  recruitment of RELA to CXCL8, fold: 48 ± 11 fold
[3]; R8 reporter, IL-1β + Budesonide (300 nM)
  EMax (Fold ± SE): 9.3 Fold
[3]; R8 reporter, IL-1β + dexamethasone (1 μM), 6 h
  EMax (Fold ± SE): 16.5 ± 1.0 Fold
[3]; R8 reporter, IL-1β alone (Fig. 3I)
  reporter activity, fold: 1.2 ± 0.3 fold
[3]; [21]
  EMax (Fold ± SE): n.r.
  pEC50 (−log[g/ mL] ± SE): n.r.
[3]; [22]
  EMax (Fold ± SE): n.r.
  pEC50 (-log[g/ml] ±SE): n.r.
[3]; R8 reporter, dexamethasone 1 μM, IL-1β 1 ng/mL or both, 6 h (Fig. 3C)
  reporter activity, fold of no stimulation ± SD: 1.3 ± 0.7 fold
[13]; IL-1β 1 ng/mL (Fig. 6A)
  reporter inducibility, fold: 2.3 fold
[13]; IL-1β 1 ng/mL, 6 h (Fig. 5C)
  reporter inducibility, fold: 2.0 ± 0.9 fold
[13]; dexamethasone 1 μM, IL-1β 1 ng/mL or both, 6 h (Fig. 3C)
  reporter activity, fold of no stimulation ± SD: 2.0 ± 0.7 fold and 2.0 fold
[4]; R2 reporter, IL-1β + dexamethasone (1 μM), 6 h
  EMax (Fold ± SE): 3.8 ± 0.2 Fold
[4]; R2 reporter, IL-1β at 1 ng/mL in the presence of dexamethasone (1 μM) (Fig. 3F)
  reporter activity, fold: 4.0 ± 1.1 fold
[4]; R2 reporter, IL-1β concentration-response, naïve, n.r. = no significant response
  EMax (Fold ± SE): n.r.
[4]; R2 reporter, IL-1β, naïve, n.r. = no significant response
  pEC50 (−log[g/ mL] ± SE): n.r.
